Series [1] is described as follows: Cytotoxicity (MTT test) on Episkin reconstructed skin after applying compositions. The class given is cell-based, human. As to conditions: human; composition A + 0.5% (w/V) 5-n-octanoylsalicylic acid, no compound of formula (I); 150 mg/cm^2, 18 hours, 37° C./5% CO2; read-out: % of cell viability. The method, then:
(§1) The Episkin system is a model of human epidermis reconstituted in vitro, which was manufactured by the company Episkin. The epidermis contained only one cell type: keratinocytes. The keratinocytes were seeded onto a dermis equivalent which was composed of various types of collagen.
(§2) After a period of proliferation of the keratinocytes immersed in the culture medium, the system was raised up to the air/liquid interface.
(§3) The assignee hereof has studied the cytotoxicity of the keratinocytes (3-(4,5-dimethylthiazol-2-yl)-2,5-diphenyltetrazolium bromide test) after applying to this reconstructed skin model various compositions in a proportion of 150 mg/cm^2, and maintaining same in an incubator at 37° C./5% CO2 for a period of 18 hours. Each composition was tested on two epidermides of 1.13 cm^2.
(§4) The basic composition A was:
(§5) The other compositions tested corresponded to this composition A to which 5-n-octanoylsalicylic acid, alone or in admixture with a compound of formula (I) according to the invention, was added.
(§6) The measurement of cell viability was carried out immediately after rinsing of the compositions with phosphate buffered saline (PBS).

Series [2] has as its system keratinocytes of Episkin human epidermis reconstituted in vitro. The series is described as above. Type of series: cell-based. As to conditions: 0.3% (w/V) 5-n-octanoylsalicylic acid added to composition A. The method, then:
as §1, §2, §3, §4, §5, §6

Here are results for one molecule from US6521222B1, “Inorganic/organic complexes for reducing skin irritation” (Societe L'Oreal S.A., priority 1999, dated 2003).

`CCCCCCCC(=O)c1ccc(O)c(C(=O)O)c1` [5-n-octanoylsalicylic acid]: the viability (usually the share of living cells, or the viability signal relative to a control) at 18 h, 0.5 % (w/V) in series [1] was found to be 7.8%. Also, the “cytotoxicity of the composition” value in series [2] is reported as “cytotoxic”.
